Reference: BigSolDB 2.1

O=C(Cn1cnnn1)N[C@@H]1C(=O)N2C(C(=O)O)=C(CSc3nncs3)CS[C@H]12
solubility (mole fraction)
Conditions	278.15 K	283.15 K	288.15 K	293.15 K	298.15 K	303.15 K	308.15 K	313.15 K
in acetone	0.00153	0.00156	0.00161	0.00165	0.0017	0.00184	0.00193	0.0023
in acetonitrile	0.000124	0.000137	0.000159	0.000164	0.000184	0.000219	0.000253	0.000284
in ethanol	4.85e-05	5.92e-05	6.49e-05	7.26e-05	9.45e-05	0.000104	0.000122	0.000152
in ethyl acetate	0.000188	0.000217	0.000242	0.0003	0.000342	0.000371	0.000433	0.00053
in isopropanol	6.43e-05	6.82e-05	7.37e-05	8.59e-05	0.000104	0.000114	0.000134	0.000152
in methanol	1.2e-05	1.5e-05	1.92e-05	2.43e-05	3.26e-05	4.34e-05	5.48e-05	6.84e-05
in water	1.04e-05	1.27e-05	1.64e-05	1.92e-05	2.51e-05	3.24e-05	4.27e-05	5.32e-05
